Test results reported in PubChem BioAssay AID330 (DTP/NCI, 2004).
“And” between values parts separate entries of the source, which are not always exact repeats. Identical values can stand only once. Inconclusive results and toxic doses are left out. The calls were made as follows: active = survival T/C of 150% or more; inactive = T/C below 125% in these data.

Test system: P388 leukemia ip, CD2F1 mice, survival T/C
Assay: NCI In Vivo Anticancer Drug Screen. Data for tumor model P388 Leukemia (intraperitoneal) in CD2F1 (CDF1) mice
Details: endpoint: median survival time, higher = longer survival
Method in brief: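 Mice carrying the transplanted tumor received test compound or vehicle. Survival was recorded in each group, and the value is the treated-group measurement divided by that of the vehicle-treated control group.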

[1] = dose: 12.5 mg/kg/injection, schedule: Q01DX009 (ip), vehicle: Klucel (hydroxypropylcellulose) (HPC)
[2] = dose: 25.0 mg/kg/injection, schedule: Q01DX009 (ip), vehicle: Klucel (hydroxypropylcellulose) (HPC)
[3] = dose: 50.0 mg/kg/injection, schedule: Q01DX009 (ip), vehicle: Klucel (hydroxypropylcellulose) (HPC)
[4] = dose: 100.0 mg/kg/injection, schedule: Q01DX009 (ip), vehicle: Klucel (hydroxypropylcellulose) (HPC)
[5] = dose: 200.0 mg/kg/injection, schedule: Q01DX009 (ip), vehicle: Klucel (hydroxypropylcellulose) (HPC)
[6] = dose: 50.0 mg/kg/injection, schedule: Q01DX009 (ip), vehicle: saline with Tween-80
[7] = dose: 200.0 mg/kg/injection, schedule: Q04DX003 (ip), vehicle: saline with Tween-80
[8] = dose: 60.0 mg/kg/injection, schedule: Q01DX005 (ip), vehicle: Klucel (hydroxypropylcellulose) (HPC)
[9] = dose: 120.0 mg/kg/injection, schedule: Q01DX005 (ip), vehicle: Klucel (hydroxypropylcellulose) (HPC)
[10] = dose: 240.0 mg/kg/injection, schedule: Q01DX005 (ip), vehicle: Klucel (hydroxypropylcellulose) (HPC)
[11] = dose: 50.0 mg/kg/injection, schedule: Q01DX005 (ip), vehicle: Klucel (hydroxypropylcellulose) (HPC)
[12] = dose: 100.0 mg/kg/injection, schedule: Q01DX005 (ip), vehicle: Klucel (hydroxypropylcellulose) (HPC)
[13] = dose: 200.0 mg/kg/injection, schedule: Q01DX005 (ip), vehicle: Klucel (hydroxypropylcellulose) (HPC)
[14] = dose: 60.0 mg/kg/injection, schedule: Q01DX005 (ip), vehicle: saline with Tween-80

Measured: T/C

CC/C(=C(\c1ccccc1)c1ccc(OCCN(C)C)cc1)c1ccccc1
inactive: dose: 0.78 mg/kg/injection, schedule: Q01DX009 (ip), vehicle: suspension in saline 94 % of control | dose: 1.56 mg/kg/injection, schedule: Q01DX009 (ip), vehicle: suspension in saline 94 % of control | dose: 3.12 mg/kg/injection, schedule: Q01DX009 (ip), vehicle: suspension in saline 94 % of control | dose: 6.25 mg/kg/injection, schedule: Q01DX009 (ip), vehicle: suspension in saline 98 % of control | [1] 105 % of control | dose: 12.5 mg/kg/injection, schedule: Q01DX009 (ip), vehicle: suspension in saline 100 % of control | [2] 102 % of control | dose: 25.0 mg/kg/injection, schedule: Q01DX009 (ip), vehicle: suspension in saline 104 % of control | dose: 50.0 mg/kg/injection, schedule: Q01DX004 (ip), vehicle: saline with Tween-80 92 % of control | [3] 110 % of control | dose: 50.0 mg/kg/injection, schedule: Q01DX009 (ip), vehicle: suspension in saline 101 % of control | dose: 100.0 mg/kg/injection, schedule: Q01DX004 (ip), vehicle: saline with Tween-80 82 % of control | [4] 117 % of control | dose: 100.0 mg/kg/injection, schedule: Q01DX009 (ip), vehicle: suspension in saline 92 % of control

Cn1c(=O)c2[nH]c(Cc3ccc4c(c3)OCO4)nc2n(C)c1=O
inactive: dose: 1.56 mg/kg/injection, schedule: Q01DX009 (ip), vehicle: Klucel (hydroxypropylcellulose) (HPC) 98 % of control | dose: 3.13 mg/kg/injection, schedule: Q01DX009 (ip), vehicle: Klucel (hydroxypropylcellulose) (HPC) 97 % of control | dose: 6.25 mg/kg/injection, schedule: Q01DX009 (ip), vehicle: Klucel (hydroxypropylcellulose) (HPC) 95 % of control | [1] 101 % of control | [2] 104 % of control | [3] 87 % of control | [4] 107 % of control | [5] 100 % of control

COc1ccc(CC(C#N)c2ccccc2)cc1 (stereo unspecified)
inactive: dose: 25.0 mg/kg/injection, schedule: Q04DX003 (ip), vehicle: saline 99 % of control | dose: 50.0 mg/kg/injection, schedule: Q04DX003 (ip), vehicle: saline 104 % of control | dose: 100.0 mg/kg/injection, schedule: Q04DX003 (ip), vehicle: saline 103 % of control | dose: 200.0 mg/kg/injection, schedule: Q04DX003 (ip), vehicle: saline 99 % of control

CC(C(=O)O)c1ncnn1-c1ccccc1 (stereo unspecified)
inactive: dose: 60.0 mg/kg/injection, schedule: Q01DX005 (ip), vehicle: saline 105 % of control | dose: 120.0 mg/kg/injection, schedule: Q01DX005 (ip), vehicle: saline 104 % of control | dose: 240.0 mg/kg/injection, schedule: Q01DX005 (ip), vehicle: saline 102 % of control

CC(=O)O[B-]1(OC(C)=O)Oc2c3ccccc3c3c4c(ccc(c24)=[O+]1)O[B-](OC(C)=O)(OC(C)=O)[O+]=3
inactive: dose: 50.0 mg/kg/injection, schedule: Q01DX005 (ip), vehicle: Klucel + Tween-80 94 % of control | dose: 100.0 mg/kg/injection, schedule: Q01DX005 (ip), vehicle: Klucel + Tween-80 89 % of control | dose: 200.0 mg/kg/injection, schedule: Q01DX005 (ip), vehicle: Klucel + Tween-80 93 % of control

Clc1cc(Cl)c(OCC#CI)c(Cl)c1Cl
inactive: [6] 86 % of control | dose: 100.0 mg/kg/injection, schedule: Q04DX003 (ip), vehicle: saline with Tween-80 109 % of control | [7] 100 % of control

O=[N+]([O-])c1ccc(Sc2cccc[n+]2[O-])c2nonc12
inactive: dose: 1.87 mg/kg/injection, schedule: Q01DX009 (ip), vehicle: Klucel (hydroxypropylcellulose) (HPC) 107 % of control | dose: 3.75 mg/kg/injection, schedule: Q01DX009 (ip), vehicle: Klucel (hydroxypropylcellulose) (HPC) 99 % of control | dose: 7.5 mg/kg/injection, schedule: Q01DX009 (ip), vehicle: Klucel (hydroxypropylcellulose) (HPC) 101 % of control

C=CCSc1n[nH]c(-c2cccs2)n1
inactive: dose: 30.0 mg/kg/injection, schedule: Q01DX005 (ip), vehicle: Klucel (hydroxypropylcellulose) (HPC) 104 % of control | [8] 109 % of control | [9] 109 % of control | [10] 109 % of control

O=[N+]([O-])c1ccc(OP(=O)(Oc2ccc([N+](=O)[O-])cc2)N(CCCl)CCCl)cc1
inactive: dose: 18.8 mg/kg/injection, schedule: Q01DX001 (ip), vehicle: other 108 % of control | dose: 37.5 mg/kg/injection, schedule: Q01DX001 (ip), vehicle: other 112 % of control | dose: 75.0 mg/kg/injection, schedule: Q01DX001 (ip), vehicle: other 113 % of control | dose: 150.0 mg/kg/injection, schedule: Q01DX001 (ip), vehicle: other 115 % of control | dose: 300.0 mg/kg/injection, schedule: Q01DX001 (ip), vehicle: other 99 % of control

COc1ccc(C(=O)/C(C)=C(/C)N)c(OCc2ccccc2)c1OC
inactive: [11] 104 % of control | [12] 94 % of control | [13] 105 % of control

CCOC(=O)CC1CC2c3cc(OC)c(OC)cc3CCN2CC1CC (stereo unspecified)
inactive: [1] 108 % of control | [2] 114 % of control | [3] 100 % of control and 114 % of control

c1ccc(N2OCC3c4ccccc4-c4ccccc4C32)cc1 (stereo unspecified)
inactive: dose: 50.0 mg/kg/injection, schedule: Q04DX002 (ip), vehicle: suspension in saline 100 % of control | dose: 100.0 mg/kg/injection, schedule: Q04DX002 (ip), vehicle: suspension in saline 104 % of control | dose: 200.0 mg/kg/injection, schedule: Q04DX002 (ip), vehicle: suspension in saline 97 % of control

CCCCCCCCCCCCCCCCOc1ccc(-c2cc(Cl)c3cc(S(=O)(=O)F)ccc3n2)cc1S(=O)(=O)F
inactive: [6] 86 % of control | dose: 50.0 mg/kg/injection, schedule: Q04DX003 (ip), vehicle: saline with Tween-80 90 % of control | dose: 200.0 mg/kg/injection, schedule: Q01DX009 (ip), vehicle: saline with Tween-80 90 % of control | [7] 90 % of control

O=C(NC(c1ccccc1)c1ccccc1)OCc1c2ccccc2cc2ccccc12
inactive: [3] 88 % of control | [4] 100 % of control | [5] 100 % of control

COc1cc(C2C(C#N)=CNc3nc(N)nc(N)c32)cc(OC)c1OC (stereo unspecified)
inactive: [14] 120 % of control

COC(=O)C1=C(C(=O)OC)CC(n2nnc(C(=O)OC)c2C(=O)OC)=CC1
inactive: [14] 92 % of control | dose: 120.0 mg/kg/injection, schedule: Q01DX005 (ip), vehicle: saline with Tween-80 101 % of control | dose: 240.0 mg/kg/injection, schedule: Q01DX005 (ip), vehicle: saline with Tween-80 99 % of control

OC(CC1CCCCN1)c1cc2c(Cl)cc(Cl)cc2c2cc(C(F)(F)F)ccc12 (stereo unspecified)
inactive: dose: 12.5 mg/kg/injection, schedule: Q01DX009 (ip), vehicle: saline with Tween-80 95 % of control | dose: 25.0 mg/kg/injection, schedule: Q01DX009 (ip), vehicle: saline with Tween-80 104 % of control | [6] 101 % of control

O=C(c1ccccc1C(=O)N1CCCO1)N1CCCO1
inactive: [8] 93 % of control | [9] 100 % of control | [10] 100 % of control

COC(=O)/C=C1\CC(C)C2=C(N1)SCC2=O (stereo unspecified)
inactive: [11] 105 % of control | [12] 105 % of control | [13] 100 % of control
